Values of other authors as cited in publication PMC9501525, “Conjugation of a Cationic Cell-Penetrating Peptide with a Novel Kunitzin-like Trypsin Inhibitor: New Insights for Enhancement of Peptide Bioactivities” (Pharmaceutics, 2022).

Columns and labels:
[1] = system: E. coli; parameters: method as in PMID 28943153; conditions: ref [41]; cited from earlier work
[2] = system: P. aeruginosa (ATCC 9027); conditions: ref [26]; cited from earlier work
From the text: (§1) Table 3 MIC/MBC of kunitzin-OV2 and its relatives against different microorganisms. | column: TAT ^a

[3] = system: MRSA (NCTC 12493); conditions: ref [26]; cited from earlier work
From the text: as §1

[4] = system: E. coli (ATCC 8739); conditions: ref [26]; cited from earlier work
From the text: as §1

[5] = system: S. aureus (ATCC 6538); conditions: ref [26]; cited from earlier work
From the text: as §1

[6] = system: C. albicans (ATCC 10231); conditions: ref [26]; cited from earlier work
From the text: as §1

| Substance | MBC [1] | MIC [1] | MBC [2] | MIC [2] | MBC [3] | MIC [3] | MBC [4] | MIC [4] | MBC [5] | MIC [5] | MBC [6] | MIC [6] |
| --- | --- | --- | --- | --- | --- | --- | --- | --- | --- | --- | --- | --- |
| melittin: typical AMP, literature comparator, ref | 64 to 128 µg/mL | 40 to 42.5 µg/mL |  |  |  |  |  |  |  |  |  |  |
| RKKRRQRRR [TAT, classical short cationic cell-penetrating peptide TAT48–56] |  |  | >128 µM | >128 µM | >128 µM | >128 µM | >128 µM | >128 µM | >128 µM | >128 µM | >128 µM | >128 µM |
